The subject of the test is P388. The test can be described thus: Cytotoxicity against mouse P388 cells after 48 hrs. It counts as functional, cell-based.

4 compounds from ChEMBL document CHEMBL1151105, “Antitumor principles in mosses: the first isolation and identification of maytansinoids, including a novel 15-methoxyansamitocin P-3” (J Nat Prod, 1988) can be followed below.

Calls of active or inactive are those of the source. The rule behind the calls is not given here.

For `COc1cc2cc(c1Cl)N(C)C(=O)C[C@H](OC(=O)C(C)C)[C@]1(C)O[C@H]1[C@H](C)[C@@H]1C[C@@](O)(NC(=O)O1)[C@H](OC)/C=C/C=C(\C)C2OC` (some centres undefined), the outcome was Active.
Consider `COc1cc2cc(c1Cl)N(C)C(=O)C[C@H](OC(=O)C(C)N(C)C(=O)C(C)C)[C@]1(C)O[C@H]1[C@H](C)[C@@H]1C[C@@](O)(NC(=O)O1)[C@H](OC)/C=C/C=C(\C)C2` (some centres undefined), for which the outcome was Active.
With `COc1cc2cc(c1Cl)N(C)C(=O)C[C@H](OC(=O)C(C)C)[C@]1(C)O[C@H]1[C@H](C)[C@@H]1C[C@@](O)(NC(=O)O1)[C@H](OC)/C=C/C=C(\C)C2`, the result was Active.
Take `COc1cc2cc(c1Cl)N(C)C(=O)C[C@H](OC(=O)C(C)N(C)C(=O)C(C)C)[C@]1(C)O[C@H]1[C@H](C)[C@@H]1C[C@@](O)(NC(=O)O1)[C@H](OC)/C=C/C=C(\C)C2OC` (some centres undefined): the outcome was Active.
